Laboratory results taken from ChEMBL document CHEMBL1212786 (Antimicrob Agents Chemother, 2010).

Columns and labels:
[1] = Cytotoxicity against human Huh7ET cells assessed as lactate dehydrogenase release up to 10 uM after 72 hrs; format: cell-based; details: huh-7, 72 h
[2] = Half life in human liver microsomes at 1 uM after 5 to 30 mins by MS analysis in presence of NADPH; format: ADME, Microsome
Cytochrome P450 1A2 = molecular target: T1, Cytochrome P450 1A2 (Homo sapiens, UniProt P05177); assay: Inhibition of human recombinant CYP1A2 after 30 mins; format: ADME
T1 sequence (P05177 whole entry): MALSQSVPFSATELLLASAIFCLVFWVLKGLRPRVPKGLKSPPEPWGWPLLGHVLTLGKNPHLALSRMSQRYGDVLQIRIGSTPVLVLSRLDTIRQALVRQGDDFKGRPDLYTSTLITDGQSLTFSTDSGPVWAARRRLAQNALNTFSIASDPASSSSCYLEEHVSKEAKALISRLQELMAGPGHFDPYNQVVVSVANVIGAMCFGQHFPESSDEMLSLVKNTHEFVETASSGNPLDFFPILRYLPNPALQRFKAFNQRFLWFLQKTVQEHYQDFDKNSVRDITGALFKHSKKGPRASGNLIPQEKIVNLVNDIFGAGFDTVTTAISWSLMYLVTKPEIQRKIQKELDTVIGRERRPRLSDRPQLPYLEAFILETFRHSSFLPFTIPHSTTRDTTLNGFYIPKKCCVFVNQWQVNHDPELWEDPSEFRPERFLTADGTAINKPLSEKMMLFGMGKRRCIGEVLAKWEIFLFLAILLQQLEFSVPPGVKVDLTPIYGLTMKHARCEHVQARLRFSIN

[3] = Cmax in Sprague-Dawley rat at 2 mg/kg, iv after 24 hrs by LC/MS/MS analysis; format: ADME, organism-based; set-up: dose 2 mg/kg, route intravenous; details: in vivo
[4] = Cmax in monkey at 1.4 mg/kg, iv after 24 hrs by LC/MS/MS analysis; format: ADME, organism-based, Macaca mulatta; set-up: dose 1.4 mg/kg, route intravenous; details: rhesus monkey, in vivo
[5] = Systemic clearance in monkey at 1.4 mg/kg, iv after 24 hrs by LC/MS/MS analysis; format: ADME, organism-based, Macaca mulatta; set-up: dose 1.4 mg/kg, route intravenous; details: rhesus monkey, in vivo
[6] = Systemic clearance in monkey at 1 mg/kg, iv after 24 hrs by LC/MS/MS analysis; format: ADME, organism-based, Macaca mulatta; set-up: dose 1 mg/kg, route intravenous; details: rhesus monkey, in vivo
[7] = Apparent elimination half life in monkey at 1 mg/kg, iv by LC/MS/MS analysis; format: ADME, organism-based, Macaca mulatta; set-up: dose 1 mg/kg, route intravenous; details: rhesus monkey, in vivo
[8] = AUC (0 to infinity) in Sprague-Dawley rat at 5 mg/kg, iv after 24 hrs by LC/MS/MS analysis; format: ADME, organism-based; set-up: time infinity, dose 5 mg/kg, route intravenous; details: plasma
[9] = AUC (0 to infinity) in monkey at 1 mg/kg, iv after 24 hrs by LC/MS/MS analysis; format: ADME, organism-based, Macaca mulatta; set-up: time infinity, dose 1 mg/kg, route intravenous; details: rhesus monkey, plasma
[10] = Cmax in Sprague-Dawley rat at 10 mg/kg, po after 24 hrs by LC/MS/MS analysis; format: ADME, organism-based; set-up: dose 10 mg/kg, route oral; details: in vivo
[11] = Tmax in Sprague-Dawley rat at 10 mg/kg, po by LC/MS/MS analysis; format: ADME, organism-based; set-up: dose 10 mg/kg, route oral; details: in vivo
[12] = Tmax in monkey at 5 mg/kg, po by LC/MS/MS analysis; format: ADME, organism-based, Macaca mulatta; set-up: dose 5 mg/kg, route oral; details: rhesus monkey, in vivo
[13] = Tmax in monkey at 7. 5 mg/kg, po by LC/MS/MS analysis; format: ADME, organism-based, Macaca mulatta; set-up: dose 5 mg/kg, route oral; details: rhesus monkey, in vivo
[14] = AUC (0 to infinity) in Sprague-Dawley rat at 5 mg/kg, po after 24 hrs by LC/MS/MS analysis; format: ADME, organism-based; set-up: time infinity, dose 5 mg/kg, route oral; details: plasma
[15] = AUC (0 to infinity) in Sprague-Dawley rat at 10 mg/kg, po after 24 hrs by LC/MS/MS analysis; format: ADME, organism-based; set-up: time infinity, dose 10 mg/kg, route oral; details: plasma
[16] = AUC (0 to infinity) in Sprague-Dawley rat at 20 mg/kg, po after 24 hrs by LC/MS/MS analysis; format: ADME, organism-based; set-up: time infinity, dose 20 mg/kg, route oral; details: plasma
[17] = AUC (0 to infinity) in monkey at 7.5 mg/kg, po after 24 hrs by LC/MS/MS analysis; format: ADME, organism-based, Macaca mulatta; set-up: dose 7.5 mg/kg, route oral, time infinity; details: rhesus monkey, plasma
[18] = Apparent elimination half life Sprague-Dawley rat at 5 mg/kg, po after 24 hrs by LC/MS/MS analysis; format: ADME, organism-based; set-up: dose 5 mg/kg, route oral; details: in vivo
[19] = Apparent elimination half life Sprague-Dawley rat at 10 mg/kg, po after 24 hrs by LC/MS/MS analysis; format: ADME, organism-based; set-up: dose 10 mg/kg, route oral; details: in vivo
[20] = Apparent elimination half life Sprague-Dawley rat at 20 mg/kg, po after 24 hrs by LC/MS/MS analysis; format: ADME, organism-based; set-up: dose 20 mg/kg, route oral; details: in vivo
[21] = Apparent elimination half life in monkey at 7.5 mg/kg, po after 24 hrs by LC/MS/MS analysis; format: ADME, organism-based, Macaca mulatta; set-up: dose 7.5 mg/kg, route oral; details: rhesus monkey, in vivo
[22] = Oral bioavailability in Sprague-Dawley rat at 5 mg/kg after 24 hrs by LC/MS/MS analysis; format: ADME, organism-based; details: in vivo
[23] = Oral bioavailability in monkey at 15 mg/kg after 24 hrs by LC/MS/MS analysis; format: ADME, organism-based, Macaca mulatta; details: rhesus monkey, in vivo
[24] = AUC (2 to 24 hrs) in Sprague-Dawley rat liver at 10 mg/kg, po by LC/MS/MS analysis; format: ADME, organism-based; set-up: time 2-24 hr, dose 10 mg/kg, route oral
[25] = AUC (2 to 24 hrs) in Sprague-Dawley rat liver at 30 mg/kg, po by LC/MS/MS analysis; format: ADME, organism-based; set-up: time upper 24 hr, time lower 2 hr, dose 30 mg/kg, route oral
[26] = AUC (2 to 24 hrs) in Sprague-Dawley rat whole blood at 10 mg/kg, iv by LC/MS/MS analysis; format: ADME, organism-based; set-up: time 2-24 hr, dose 10 mg/kg, route intravenous
[27] = AUC (2 to 24 hrs) in Sprague-Dawley rat whole blood at 30 mg/kg, po by LC/MS/MS analysis; format: ADME, organism-based; set-up: time 2-24 hr, dose 30 mg/kg, route oral
[28] = Cmax in Sprague-Dawley rat liver at 10 mg/kg, po by LC/MS/MS analysis; format: ADME, organism-based; set-up: dose 10 mg/kg, route oral
[29] = Cmax in Sprague-Dawley rat whole blood at 10 mg/kg, iv by LC/MS/MS analysis; format: ADME, organism-based; set-up: dose 10 mg/kg, route intravenous
Hepatocyte [30] = assay: Cellular uptake in human hepatocytes assessed per mg of cellular protein association with hepatocyte fraction at 0.378 uM after 1 hr by LC/MS/MS analysis; format: ADME, cell-based
Hepatocyte [31] = assay: Cellular uptake in human hepatocytes assessed per mg of cellular protein association with nonparenchymal fraction at 2.27 uM after 1 hr by LC/MS/MS analysis; format: ADME, cell-based
Hepatocyte [32] = assay: Cellular uptake in human hepatocytes assessed per mg of cellular protein association with hepatocyte fraction at 2.27 uM after 1 hr by LC/MS/MS analysis; format: ADME, cell-based
Hepatitis C virus [33] = assay: Antiviral activity against Hepatitis C virus infected in human Huh7ET cells assessed as inhibition of viral replication at 0.02 to 5 uM after 24 hrs by luciferase reporter gene assay; format: functional, Hepacivirus hominis, Huh-7
[34] = Cytotoxicity against human Huh7ET cells assessed as lactate dehydrogenase release up to 5 uM after 72 hrs in presence of 10 to 40% human serum; format: cell-based; details: huh-7, 72 h
PBMC = assay: Antiinflammatory activity in human PBMC assessed as inhibition of anti-CD3/CD28 antibody-induced IL-2 production treated for 1 hr before anti-CD3/CD28 antibody challenge measured after 6 hrs by immunosuppression assay; format: functional, cell-based; details: read-out: EC50
[35] = Cytotoxicity against human PBMC assessed as cell viability at 10 uM after 18 hrs relative to control; format: cell-based; details: read-out: Activity
Hepatitis C virus [36] = assay: microbe, parasite or virus in culture; details: Huh-7, 48 h
Description: Antiviral activity against Hepatitis C virus infected in human Huh7ET cells assessed as inhibition of viral replication after 48 hrs by luciferase reporter gene assay

Hepatitis C virus [37] = assay: microbe, parasite or virus in culture; details: Huh-7, 72 h

half-life at 1 µM [2]: 1.05 h
IC50 (Cytochrome P450 1A2): > 100000 nM
Cmax [3]: 1510 ng/mL
Cmax [4]: 2310 ng/mL
clearance [5]: 0.47 mL/min/kg
clearance [6]: 0.528 mL/min/kg
half-life [7]: 22.3 h
AUC(0-inf) [8]: 37300 ng·h/mL
AUC(0-inf) [9]: 31500 ng·h/mL
Cmax [10]: 1400 ng/mL
Tmax [11]: 8 h
Tmax [12]: 2 h
Tmax [13]: 2.7 h
AUC(0-inf) [14]: 13000 ng·h/mL
AUC(0-inf) [15]: 26500 ng·h/mL
AUC(0-inf) [16]: 42500 ng·h/mL
AUC(0-inf) [17]: 42000 ng·h/mL
half-life [18]: 19.2 h
half-life [19]: 21.4 h
half-life [20]: 23.8 h
half-life [21]: 33.1 h
bioavailability [22]: 23.1%
bioavailability [23]: 11.1%
AUC(0-t) [24]: 120000 ng·h/mL
AUC(0-t) [25]: 141000 ng·h/mL
AUC(0-t) [26]: 30500 ng·h/mL
AUC(0-t) [27]: 30200 ng·h/mL
Cmax [28]: 11100 ng/mL
Cmax [29]: 3360 ng/mL
Drug uptake (Hepatocyte [30]): 1.03 ng/mg
Drug uptake (Hepatocyte [31]): 3.16 ng/mg
Drug uptake (Hepatocyte [32]): 6.05 ng/mg
EC50 (Hepatitis C virus [36]): 70 nM
EC50 (Hepatitis C virus [37]): 120 nM
Structure (SMILES): C/C=C/C[C@@H](C)[C@@H](O)[C@H]1C(=O)N[C@@H](CC)C(=O)N(C)C(SCCN(C)C)C(=O)N(C)[C@@H](CC(C)(C)O)C(=O)N[C@@H](C(C)C)C(=O)N(C)[C@@H](CC(C)C)C(=O)N[C@@H](C)C(=O)N[C@H](C)C(=O)N(C)[C@@H](CC(C)C)C(=O)N(C)[C@@H](CC(C)C)C(=O)N(C)[C@@H](C(C)C)C(=O)N1C (single isomer, unassigned) [SCY 635]
Activity [1]: Non-toxic
inhibition (INH) (Hepatitis C virus [33]): 70%
Activity [34]: Non-toxic
EC50 (PBMC): 5300 nM
viability at 18 h, 10 µM [35]: 10.9%
